# What was measured:
# [1] = Metabolic stability in human liver microsomes assessed as intrinsic clearance at 1 uM measured upto 60 mins in presence of NADPH by LC-MS/MS analysis; format: ADME, Microsome; conditions: read-out: CLH
# [2] = Metabolic stability in human hepatocytes assessed as intrinsic clearance at 1 uM measured upto 3 hrs by LC-MS/MS analysis; format: ADME, cell-based, Hepatocyte; conditions: read-out: CLH
# [3] = Lipophilicity, logD of the compound at pH 7.4 by shake flask assay based LC-MS/MS analysis; format: physicochemical; conditions: buffer
# Homo sapiens = species: Homo sapiens; test: Selectivity index, ratio of IC50 for human Nav1.5 expressed in HEK293 cells to IC50 for human Nav1.7 expressed in HEK293 cells; format: cell-based
# [4] = molecular target: Sodium channel protein type 5 subunit alpha (Homo sapiens, UniProt Q14524); test: Inhibition of human Nav1.5 expressed in HEK293 cells incubated for 1 hr in presence of veratridine and anthropleurin-C by sodium influx assay; format: cell-based
# Sodium channel protein type 5 subunit alpha, sequence (Q14524 whole entry): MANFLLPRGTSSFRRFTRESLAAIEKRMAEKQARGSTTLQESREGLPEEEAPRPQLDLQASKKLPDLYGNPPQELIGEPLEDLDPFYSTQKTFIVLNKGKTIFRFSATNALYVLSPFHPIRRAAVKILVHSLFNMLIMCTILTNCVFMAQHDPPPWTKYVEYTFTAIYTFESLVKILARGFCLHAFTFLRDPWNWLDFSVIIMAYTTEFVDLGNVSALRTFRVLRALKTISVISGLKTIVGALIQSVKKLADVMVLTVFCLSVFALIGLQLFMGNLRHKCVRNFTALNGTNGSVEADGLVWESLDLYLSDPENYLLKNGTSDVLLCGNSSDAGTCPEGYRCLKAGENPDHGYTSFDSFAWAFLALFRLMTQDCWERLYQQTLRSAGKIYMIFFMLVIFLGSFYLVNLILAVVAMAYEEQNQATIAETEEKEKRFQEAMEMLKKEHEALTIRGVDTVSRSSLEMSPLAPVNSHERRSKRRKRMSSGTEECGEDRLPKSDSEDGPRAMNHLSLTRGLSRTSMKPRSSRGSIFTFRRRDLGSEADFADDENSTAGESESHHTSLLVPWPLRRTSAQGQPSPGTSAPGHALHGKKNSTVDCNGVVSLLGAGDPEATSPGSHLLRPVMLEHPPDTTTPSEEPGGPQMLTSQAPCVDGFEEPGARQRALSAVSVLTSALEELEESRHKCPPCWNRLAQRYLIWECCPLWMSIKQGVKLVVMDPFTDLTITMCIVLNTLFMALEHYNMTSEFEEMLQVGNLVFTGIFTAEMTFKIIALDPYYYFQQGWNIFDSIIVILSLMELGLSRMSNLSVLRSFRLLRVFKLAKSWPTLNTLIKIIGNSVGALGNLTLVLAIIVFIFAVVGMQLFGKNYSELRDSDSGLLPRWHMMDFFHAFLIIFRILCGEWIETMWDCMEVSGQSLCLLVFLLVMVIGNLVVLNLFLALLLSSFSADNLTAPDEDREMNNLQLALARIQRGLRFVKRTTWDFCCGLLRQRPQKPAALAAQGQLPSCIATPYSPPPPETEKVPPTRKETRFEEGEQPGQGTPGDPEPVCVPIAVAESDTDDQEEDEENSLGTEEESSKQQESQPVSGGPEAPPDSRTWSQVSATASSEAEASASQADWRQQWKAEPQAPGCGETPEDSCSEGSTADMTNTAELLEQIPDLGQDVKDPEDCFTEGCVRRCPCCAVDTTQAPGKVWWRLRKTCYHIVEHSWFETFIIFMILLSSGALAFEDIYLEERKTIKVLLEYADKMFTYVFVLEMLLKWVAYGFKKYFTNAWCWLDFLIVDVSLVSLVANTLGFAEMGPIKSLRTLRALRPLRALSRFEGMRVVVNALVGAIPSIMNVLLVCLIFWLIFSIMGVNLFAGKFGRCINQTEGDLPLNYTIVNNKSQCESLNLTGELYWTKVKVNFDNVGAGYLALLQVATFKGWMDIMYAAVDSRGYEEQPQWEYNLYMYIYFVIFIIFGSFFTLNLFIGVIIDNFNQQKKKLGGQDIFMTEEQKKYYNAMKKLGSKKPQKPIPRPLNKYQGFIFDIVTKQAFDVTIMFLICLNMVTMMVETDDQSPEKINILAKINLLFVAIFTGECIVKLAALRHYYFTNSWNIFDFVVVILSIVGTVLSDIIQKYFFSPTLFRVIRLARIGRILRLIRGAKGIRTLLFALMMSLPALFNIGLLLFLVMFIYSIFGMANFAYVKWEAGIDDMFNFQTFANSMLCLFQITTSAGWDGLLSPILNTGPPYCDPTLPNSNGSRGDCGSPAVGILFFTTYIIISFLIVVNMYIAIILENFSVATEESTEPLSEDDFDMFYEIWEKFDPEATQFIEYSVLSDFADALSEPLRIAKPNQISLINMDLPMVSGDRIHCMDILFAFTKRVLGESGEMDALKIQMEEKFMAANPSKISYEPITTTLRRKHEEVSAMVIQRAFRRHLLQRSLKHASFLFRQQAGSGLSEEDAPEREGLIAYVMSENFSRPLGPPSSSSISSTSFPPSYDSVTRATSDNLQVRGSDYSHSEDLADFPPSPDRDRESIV
# [5] = molecular target: Sodium channel protein type 2 subunit alpha (Homo sapiens, UniProt Q99250); test: Inhibition of full length human Nav1.2 expressed in HEK cells by whole cell voltage clamp analysis; format: cell-based
# Sodium channel protein type 2 subunit alpha, sequence (Q99250 whole entry): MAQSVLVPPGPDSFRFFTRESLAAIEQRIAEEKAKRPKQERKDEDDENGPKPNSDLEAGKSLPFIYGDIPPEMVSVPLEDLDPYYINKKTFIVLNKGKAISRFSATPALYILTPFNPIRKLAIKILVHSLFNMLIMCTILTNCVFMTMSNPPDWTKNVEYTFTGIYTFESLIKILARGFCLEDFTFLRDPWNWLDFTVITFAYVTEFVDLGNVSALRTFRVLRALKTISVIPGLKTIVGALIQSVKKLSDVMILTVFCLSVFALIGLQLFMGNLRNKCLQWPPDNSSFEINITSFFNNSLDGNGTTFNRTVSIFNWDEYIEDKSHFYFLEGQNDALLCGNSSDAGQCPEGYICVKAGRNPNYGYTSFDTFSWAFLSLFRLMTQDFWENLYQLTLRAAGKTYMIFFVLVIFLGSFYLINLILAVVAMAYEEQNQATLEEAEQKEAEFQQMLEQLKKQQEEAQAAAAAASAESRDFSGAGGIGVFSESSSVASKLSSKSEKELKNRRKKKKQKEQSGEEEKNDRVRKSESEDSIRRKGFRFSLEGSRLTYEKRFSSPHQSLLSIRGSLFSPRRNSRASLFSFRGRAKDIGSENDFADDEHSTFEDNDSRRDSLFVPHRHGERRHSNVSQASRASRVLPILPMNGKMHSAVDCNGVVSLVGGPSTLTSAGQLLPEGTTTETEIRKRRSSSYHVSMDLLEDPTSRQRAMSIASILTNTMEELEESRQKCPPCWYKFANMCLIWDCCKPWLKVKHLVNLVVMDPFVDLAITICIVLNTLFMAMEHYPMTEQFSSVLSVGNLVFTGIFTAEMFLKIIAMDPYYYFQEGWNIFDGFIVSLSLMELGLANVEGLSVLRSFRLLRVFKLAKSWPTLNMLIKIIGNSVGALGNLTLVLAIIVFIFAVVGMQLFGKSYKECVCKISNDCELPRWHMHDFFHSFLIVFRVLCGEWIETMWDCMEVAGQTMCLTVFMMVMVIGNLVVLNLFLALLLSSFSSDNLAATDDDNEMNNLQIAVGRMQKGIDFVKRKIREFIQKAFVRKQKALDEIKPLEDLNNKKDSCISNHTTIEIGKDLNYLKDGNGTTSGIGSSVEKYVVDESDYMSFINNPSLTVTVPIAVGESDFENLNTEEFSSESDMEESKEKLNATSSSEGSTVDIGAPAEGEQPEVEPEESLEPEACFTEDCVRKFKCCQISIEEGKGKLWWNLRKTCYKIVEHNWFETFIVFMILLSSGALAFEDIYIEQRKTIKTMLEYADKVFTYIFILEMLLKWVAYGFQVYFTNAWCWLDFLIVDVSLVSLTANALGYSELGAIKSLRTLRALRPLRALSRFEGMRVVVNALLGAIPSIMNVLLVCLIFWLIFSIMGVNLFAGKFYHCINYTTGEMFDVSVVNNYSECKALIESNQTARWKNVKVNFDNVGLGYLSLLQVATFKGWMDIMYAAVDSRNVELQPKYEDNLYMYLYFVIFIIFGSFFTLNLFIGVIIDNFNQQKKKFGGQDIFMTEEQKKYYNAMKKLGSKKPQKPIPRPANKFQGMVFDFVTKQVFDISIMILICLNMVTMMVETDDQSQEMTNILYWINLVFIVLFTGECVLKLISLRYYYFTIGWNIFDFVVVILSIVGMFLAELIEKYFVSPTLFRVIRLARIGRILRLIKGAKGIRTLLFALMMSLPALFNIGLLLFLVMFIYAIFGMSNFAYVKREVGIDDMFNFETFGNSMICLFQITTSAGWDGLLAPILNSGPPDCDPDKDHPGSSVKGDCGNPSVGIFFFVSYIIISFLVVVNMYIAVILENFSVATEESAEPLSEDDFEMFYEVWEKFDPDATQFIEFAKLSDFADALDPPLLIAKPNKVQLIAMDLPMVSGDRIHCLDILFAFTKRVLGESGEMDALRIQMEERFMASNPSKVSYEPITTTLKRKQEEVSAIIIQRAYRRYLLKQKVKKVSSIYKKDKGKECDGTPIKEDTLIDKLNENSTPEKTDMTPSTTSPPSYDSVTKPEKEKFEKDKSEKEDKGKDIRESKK
# [6] = Oral bioavailability in Sprague-Dawley rat at 5 mg/kg measured upto 8 hrs by LC-MS/MS analysis; format: ADME, organism-based; conditions: in vivo
# [7] = Oral bioavailability in Beagle dog at 1 mg/kg measured upto 24 hrs by LC-MS/MS analysis; format: ADME, organism-based, Canis lupus familiaris; conditions: in vivo
# [8] = Kinetic solubility of compound in PBS at pH 7.4; format: physicochemical; conditions: read-out: Kinetic_solubility
# [9] = Volume of distribution at steady state in Beagle dog at 1 mg/kg, po or 0.5 mg/kg, iv measured upto 24 hrs by LC-MS/MS analysis; format: ADME, organism-based, Canis lupus familiaris; conditions: in vivo
# [10] = Plasma protein binding in human assessed as unbound fraction at 5 uM after 6 hrs by LC-MS/MS analysis based equilibrium dialysis method; format: ADME, cell-free
# [11] = Oral bioavailability in cynomolgus monkey at 2 mg/kg measured upto 24 hrs by LC-MS/MS analysis; format: ADME, organism-based, Macaca fascicularis; conditions: in vivo
# [12] = Half life in Beagle dog at 1 mg/kg, po or 0.5 mg/kg, iv measured upto 24 hrs by LC-MS/MS analysis; format: ADME, organism-based, Canis lupus familiaris; conditions: in vivo
# [13] = molecular target: Sodium channel protein type 8 subunit alpha (Homo sapiens, UniProt Q9UQD0); test: Inhibition of human Nav1.6 expressed in CHO cells by whole cell voltage clamp analysis; format: cell-based
# [14] = Half life in Sprague-Dawley rat at 5 mg/kg, po or 1 mg/kg, iv measured upto 8 hrs by LC-MS/MS analysis; format: ADME, organism-based; conditions: in vivo
# [15] = Apparent permeability across apical to basolateral side in MDCK cells by transwell assay; format: ADME, cell-based, Canis lupus familiaris; conditions: dog
# [16] = Plasma protein binding in Beagle dog assessed as unbound fraction at 5 uM after 6 hrs by LC-MS/MS analysis based equilibrium dialysis method; format: ADME, cell-free, Canis lupus familiaris
# [17] = Volume of distribution at steady state in cynomolgus monkey at 2 mg/kg, po or 1 mg/kg, iv measured upto 24 hrs by LC-MS/MS analysis; format: ADME, organism-based, Macaca fascicularis; conditions: in vivo
# [18] = Half life in cynomolgus monkey at 2 mg/kg, po or 1 mg/kg, iv measured upto 24 hrs by LC-MS/MS analysis; format: ADME, organism-based, Macaca fascicularis; conditions: in vivo
# Mus musculus = test: Antinociceptive activity in po dosed FVB hNav1.7 transgenic mouse model of inherited erythromelalgia harboring I848T mutation assessed as reduction in number of nociceptive aconitine injected after compound administration; format: functional, organism-based; conditions: for EC50: Mus musculus; for fEC50: route po
# Cytochrome P450 3A4 = Cytochrome P450 3A4 (Homo sapiens, UniProt P08684); test: Inhibition of CYP3A4 (unknown origin); format: ADME
# Cytochrome P450 3A4, sequence (P08684 whole entry): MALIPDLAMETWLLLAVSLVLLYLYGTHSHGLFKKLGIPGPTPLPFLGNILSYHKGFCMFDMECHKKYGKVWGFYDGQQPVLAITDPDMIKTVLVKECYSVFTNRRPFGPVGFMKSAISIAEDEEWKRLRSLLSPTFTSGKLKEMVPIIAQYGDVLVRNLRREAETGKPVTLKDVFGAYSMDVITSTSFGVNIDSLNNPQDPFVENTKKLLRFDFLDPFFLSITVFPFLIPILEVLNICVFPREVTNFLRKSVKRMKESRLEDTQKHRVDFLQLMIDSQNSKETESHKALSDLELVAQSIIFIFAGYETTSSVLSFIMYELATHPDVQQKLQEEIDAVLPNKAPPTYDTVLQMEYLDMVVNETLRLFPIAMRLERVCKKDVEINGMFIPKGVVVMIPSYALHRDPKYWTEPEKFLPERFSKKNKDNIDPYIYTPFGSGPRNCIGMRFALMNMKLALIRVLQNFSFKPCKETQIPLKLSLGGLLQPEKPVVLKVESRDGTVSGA
# [19] = Plasma protein binding in cynomolgus monkey assessed as unbound fraction at 5 uM after 6 hrs by LC-MS/MS analysis based equilibrium dialysis method; format: ADME, cell-free, Macaca fascicularis
# [20] = Volume of distribution at steady state in Sprague-Dawley rat at 5 mg/kg, po or 1 mg/kg, iv measured upto 8 hrs by LC-MS/MS analysis; format: ADME, organism-based; conditions: in vivo
# [21] = molecular target: Sodium channel protein type 1 subunit alpha (Homo sapiens, UniProt P35498); test: Inhibition of full length human Nav1.1 expressed in HEK cells by whole cell voltage clamp analysis; format: cell-based
# [22] = Plasma protein binding in Sprague-Dawley rat assessed as unbound fraction at 5 uM after 6 hrs by LC-MS/MS analysis based equilibrium dialysis method; format: ADME, cell-free
# [23] = molecular target: Sodium channel protein type 4 subunit alpha (Homo sapiens, UniProt P35499); test: Inhibition of full length human Nav1.4 expressed in HEK cells by whole cell voltage clamp analysis; format: cell-based
compound,measurement,setting,value
C[C@H](c1cc(Cl)cc(Cl)c1)N1CCC(COc2cc(F)c(C(=O)NS(C)(=O)=O)cc2C2CC2)CC1,CLint scaled at 1 µM,[1],17 mL/min/kg
same,CLint scaled at 1 µM,[2],16 mL/min/kg
same,logD,[3],2.2
O=C(NS(=O)(=O)C1CC1)c1cc(C2CC2)c(OCC23CC4CC(CC(C4)C2)C3)cc1F,Ratio IC50,Homo sapiens,19
same,CLint scaled at 1 µM,[1],18 mL/min/kg
same,CLint scaled at 1 µM,[2],16 mL/min/kg
same,IC50,[4],0.26 µM
same,logD,[3],3.2
C[C@@H](c1cc(Cl)cc(Cl)c1)N1CCC(COc2cc(F)c(C(=O)NS(C)(=O)=O)cc2C2CC2)CC1,IC50,[5],0.038 µM
same,CLint scaled at 1 µM,[1],9.6 mL/min/kg
same,bioavailability,[6],68%
same,bioavailability,[7],100%
same,solubility kinetic,[8],52 µM
same,Vdss,[9],0.33 L/kg
same,Fu,[10],0.196%
same,CLint scaled at 1 µM,[2],< 6.2 mL/min/kg
same,bioavailability,[11],82%
same,IC50,[4],1.5 µM
same,half-life,[12],46 h
same,IC50,[13],0.198 µM
same,half-life,[14],5 h
same,Papp A→B,[15],11 ×10⁻⁶ cm/s
same,Fu,[16],0.157%
same,Vdss,[17],0.29 L/kg
same,half-life,[18],4.4 h
same,EC50,Mus musculus,1.1 µM
same,fEC50,Mus musculus,3.5 nM
same,IC50,Cytochrome P450 3A4,> 10 µM
same,Fu,[19],0.129%
same,Vdss,[20],0.6 L/kg
same,logD,[3],2.3
same,IC50,[21],0.202 µM
same,Fu,[22],0.278%
CS(=O)(=O)NC(=O)c1cc(C2CC2)c(OCC2CCN(Cc3cc(Cl)cc(Cl)c3)CC2)cc1F,Ratio IC50,Homo sapiens,58
same,CLint scaled at 1 µM,[1],9.7 mL/min/kg
same,CLint scaled at 1 µM,[2],15 mL/min/kg
same,IC50,[4],7 µM
same,logD,[3],2
O=C(NS(=O)(=O)N1CCCC1)c1cc(C2CC2)c(OCC23CC4CC(CC(C4)C2)C3)cc1F,Ratio IC50,Homo sapiens,9
same,CLint scaled at 1 µM,[1],8.5 mL/min/kg
same,CLint scaled at 1 µM,[2],< 6.2 mL/min/kg
same,IC50,[4],1.5 µM
same,logD,[3],4.4
CS(=O)(=O)NC(=O)c1cc(C2CC2)c(OCC2CCN(Cc3ccc(Cl)cc3)CC2)cc1F,Ratio IC50,Homo sapiens,667
same,CLint scaled at 1 µM,[1],9.9 mL/min/kg
same,CLint scaled at 1 µM,[2],15 mL/min/kg
same,IC50,[4],27 µM
CS(=O)(=O)NC(=O)c1cc(C2CC2)c(OCC2CN(Cc3ccccc3)C2)cc1F,IC50,[4],> 30 µM
same,logD,[3],0.1
O=C(NS(=O)(=O)N1CCC1)c1cc(C2CC2)c(OCC23CC4CC(CC(C4)C2)C3)cc1F,IC50,[5],0.0189 µM
same,CLint scaled at 1 µM,[1],10 mL/min/kg
same,IC50,[23],0.0085 µM
same,bioavailability,[6],34%
same,bioavailability,[7],50%
same,solubility kinetic,[8],5.3 µM
same,Vdss,[9],0.17 L/kg
same,Fu,[10],0.025%
same,CLint scaled at 1 µM,[2],11 mL/min/kg
same,bioavailability,[11],30%
same,IC50,[4],0.87 µM
same,half-life,[12],5.5 h
same,half-life,[14],0.95 h
same,Papp A→B,[15],4.7 ×10⁻⁶ cm/s
same,Fu,[16],0.005%
same,Vdss,[17],0.3 L/kg
same,half-life,[18],1.6 h
same,EC50,Mus musculus,1.7 µM
same,fEC50,Mus musculus,0.42 nM
same,IC50,Cytochrome P450 3A4,> 10 µM
same,Fu,[19],0.025%
same,Vdss,[20],0.38 L/kg
same,logD,[3],3.1
same,Fu,[22],0.013%
CS(=O)(=O)NC(=O)c1cc(C2CC2)c(OCC2CCN(Cc3ccc(OC(F)(F)F)cc3)CC2)cc1F,Ratio IC50,Homo sapiens,531
same,CLint scaled at 1 µM,[1],9.9 mL/min/kg
same,IC50,[4],17 µM
same,logD,[3],1.2
O=C(NS(=O)(=O)N1CCOCC1)c1cc(C2CC2)c(OCC23CC4CC(CC(C4)C2)C3)cc1F,Ratio IC50,Homo sapiens,1
same,CLint scaled at 1 µM,[1],11 mL/min/kg
same,CLint scaled at 1 µM,[2],12 mL/min/kg
same,IC50,[4],0.11 µM
same,logD,[3],3.8
CS(=O)(=O)NC(=O)c1cc(C2CC2)c(OCC2CN(C(c3ccccc3)c3ccccc3)C2)cc1F,Ratio IC50,Homo sapiens,48
same,CLint scaled at 1 µM,[1],6.7 mL/min/kg
same,CLint scaled at 1 µM,[2],15 mL/min/kg
same,IC50,[4],1.1 µM
same,logD,[3],1.8
CS(=O)(=O)NC(=O)c1cc(C2CC2)c(OCC2CCN(Cc3ccccc3)CC2)cc1F,Ratio IC50,Homo sapiens,> 9.1
same,CLint scaled at 1 µM,[1],4.8 mL/min/kg
same,CLint scaled at 1 µM,[2],15 mL/min/kg
same,IC50,[4],> 30 µM
same,logD,[3],0.3
CC(C)(c1cc(Cl)cc(Cl)c1)N1CCC(COc2cc(F)c(C(=O)NS(C)(=O)=O)cc2C2CC2)CC1,Ratio IC50,Homo sapiens,144
same,CLint scaled at 1 µM,[1],7.8 mL/min/kg
same,CLint scaled at 1 µM,[2],< 6.2 mL/min/kg
same,IC50,[4],3.9 µM
same,logD,[3],3.9
CS(=O)(=O)NC(=O)c1cc(C2CC2)c(OCC2CCN(C(c3ccccc3)c3ccccc3)CC2)cc1F,Ratio IC50,Homo sapiens,8.9
same,CLint scaled at 1 µM,[1],5.5 mL/min/kg
same,CLint scaled at 1 µM,[2],< 6.2 mL/min/kg
same,IC50,[4],0.59 µM
same,logD,[3],2.7
CS(=O)(=O)NC(=O)c1cc(C2CC2)c(OCC2CCN(C(=O)c3cc(Cl)cc(Cl)c3)CC2)cc1F,Ratio IC50,Homo sapiens,183
same,CLint scaled at 1 µM,[1],8.6 mL/min/kg
same,CLint scaled at 1 µM,[2],7.5 mL/min/kg
same,IC50,[4],6.4 µM
same,logD,[3],0.9
O=C(NS(=O)(=O)C1COC1)c1cc(C2CC2)c(OCC23CC4CC(CC(C4)C2)C3)cc1F,Ratio IC50,Homo sapiens,20
same,CLint scaled at 1 µM,[1],16 mL/min/kg
same,CLint scaled at 1 µM,[2],6.7 mL/min/kg
same,IC50,[4],0.75 µM
same,logD,[3],3.4
CS(=O)(=O)NC(=O)c1cc(C2CC2)c(OCC23CC4CC(CC(C4)C2)C3)cc1F,CLint scaled at 1 µM,[1],19 mL/min/kg
same,CLint scaled at 1 µM,[2],17 mL/min/kg
same,IC50,[4],1.1 µM
same,logD,[3],3.3

# Source: ChEMBL document CHEMBL5055616, “Discovery of Acyl-sulfonamide Nav1.7 Inhibitors GDC-0276 and GDC-0310” (J Med Chem, 2021)
